In patent publication US7138361B2, “Herbicidal heterocycles” (E. I. du Pont de Nemours and Company, priority 2000, dated 2006):

Columns and labels:
Assay type in all cases: in vivo
[1] = system: wild oat (Avena fatua); experiment: Test B postemergence
In short: (§1)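 Preemergence: seeds planted and treated with test chemicals in non-phytotoxic solvent with surfactant; postemergence on plants 2–18 cm (1- to 4-leaf stage). Kept in greenhouse 13–15 days, then visually rated against controls on a 0 (no effect) to 100 (complete control) scale.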

[2] = system: lambsquarters (Chenopodium album); experiment: Test B postemergence
In short: as §1

[3] = system: corn (Zea mays); experiment: Test B postemergence
In short: as §1

[4] = system: blackgrass (Alopecurus myosuroides); experiment: Test B postemergence
In short: as §1

[5] = system: velvetleaf (Abutilon theophrasti); experiment: Test B postemergence
In short: as §1

[6] = system: pigweed (Amaranthus retroflexus); experiment: Test B postemergence
In short: as §1

[7] = system: giant foxtail (Setaria faberii); experiment: Test B postemergence
In short: as §1

[8] = system: cocklebur (Xanthium strumarium); experiment: Test B postemergence
In short: as §1

[9] = system: wheat (Triticum aestivum); experiment: Test B postemergence
In short: as §1

[10] = system: crabgrass (Digitaria sanguinalis); experiment: Test B postemergence
In short: as §1

[11] = system: Surinam grass (Brachiaria decumbens); experiment: Test B postemergence
In short: as §1

[12] = system: barnyardgrass (Echinochloa crus-galli); experiment: Test B postemergence
In short: as §1

[13] = system: morning glory (Ipomoea hederacea); experiment: Test B postemergence
In short: as §1

[14] = system: smallflower flatsedge (Cyperus difformis); experiment: Test C flooded paddy test; conditions: for Flatsedge plant response rating: Flooded Paddy, Rate 500 g/ha, scale 0 to 100, 0 no effect, 100 complete control; for Plant response rating, Flatsedge / Plant response rating (scale 0 to 100), Flatsedge: flooded paddy test; for Plant response rating, Flatsedge: scale 0 to 100 (0 no effect, 100 complete control); for Plant response rating (scale 0 to 100), Flatsedge: Rate 62 g/ha, visually evaluated after 12 to 14 days, 0 = no effect, 100 = complete control
In short: (§2)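 Visually assessed vs untreated controls 12–14 d post-treatment (greenhouse). Flooded paddy plants were at the 2-leaf stage; scale 0 = no effect, 100 = complete control.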

[15] = system: rice (Oryza saliva); experiment: Test C flooded paddy test; conditions: for Rice plant response rating: Flooded Paddy, Rate 500 g/ha, scale 0 to 100, 0 no effect, 100 complete control; for Plant response rating, Rice / Plant response rating (scale 0 to 100), Rice: flooded paddy test; for Plant response rating, Rice: scale 0 to 100 (0 no effect, 100 complete control); for Plant response rating (scale 0 to 100), Rice: Rate 62 g/ha, visually evaluated after 12 to 14 days, 0 = no effect, 100 = complete control
In short: as §2

[16] = system: barnyardgrass (Echinochloa crus-galli); experiment: Test C flooded paddy test; conditions: for Barnyardgrass plant response rating: Flooded Paddy, Rate 500 g/ha, scale 0 to 100, 0 no effect, 100 complete control; for Plant response rating, Barnyardgrass / Plant response rating (scale 0 to 100), Barnyardgrass: flooded paddy test; for Plant response rating, Barnyardgrass: scale 0 to 100 (0 no effect, 100 complete control); for Plant response rating (scale 0 to 100), Barnyardgrass: Rate 62 g/ha, visually evaluated after 12 to 14 days, 0 = no effect, 100 = complete control
In short: as §2

[17] = system: duck salad (Heteranthera limosa); experiment: Test C flooded paddy test; conditions: for Ducksalad plant response rating: Flooded Paddy, Rate 500 g/ha, scale 0 to 100, 0 no effect, 100 complete control; for Plant response rating, Ducksalad / Plant response rating (scale 0 to 100), Ducksalad: flooded paddy test; for Plant response rating, Ducksalad: scale 0 to 100 (0 no effect, 100 complete control); for Plant response rating (scale 0 to 100), Ducksalad: Rate 62 g/ha, visually evaluated after 12 to 14 days, 0 = no effect, 100 = complete control
In short: as §2

[18] = system: Sunflower; experiment: Test C preemergence; conditions: Rate 62 g/ha, scale 0 to 100
[19] = system: Sunflower; experiment: Test C preemergence; conditions: Rate 250 g/ha, scale 0 to 100, 0 no effect, 100 complete control
[20] = system: Sunflower; experiment: Test C preemergence; conditions: Rate 125 g/ha; scale 0 to 100, 0 no effect, 100 complete control
[21] = system: common ragweed (Ambrosia elatior); experiment: Test C preemergence; conditions: for Plant response rating (0 to 100), Ragweed, Common: Rate 500 g/ha, visual evaluation after 12 to 14 days
In short: (§3)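 Seeds are planted and treated before emergence; for the postemergence test, plants at 1- to 4-leaf stage (2–18 cm) receive the same formulation, a solvent blend containing surfactant. Plants stay in the greenhouse 12–14 days, then response is scored visually from 0 (none) to 100 (complete control).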

[22] = system: Surinam grass (Brachiaria decumbens); experiment: Test C preemergence; conditions: for Plant response rating (0 to 100), Surinam grass: Rate 500 g/ha, visual evaluation after 12 to 14 days
In short: as §3

[23] = Rate 125 g/ha, scale 0 to 100, 0 no effect, 100 complete control
[24] = Rate 500 g/ha, scale 0 (no effect) to 100 (complete control), 13 to 15 days
[25] = preemergence, Rate 62 g/ha, scale 0 to 100
[26] = preemergence, Rate 250 g/ha, scale 0 to 100, 0 no effect, 100 complete control
[27] = Rate 500 g/ha, scale 0 to 100, 0 is no effect, 100 is complete control, 13 to 15 days

## CCC(CC)c1ccn(C2CCN(c3ccc(F)c(C(F)(F)F)c3)C2=O)n1 (centres unmarked) [Compound 144]
[1]; [23]
  Plant response rating, Wild Oat: 0
[1]; [24]
  Plant response rating, Wild Oat: 0
[2]; [23]
  Plant response rating, Lambsquarters: 100
[2]; [24]
  Plant response rating, Lambsquarters: 100
[3]; [23]
  Plant response rating, Corn: 0
[3]; [24]
  Plant response rating, Corn: 0
[4]; [23]
  Plant response rating, Blackgrass: 0
[4]; [24]
  Plant response rating, Blackgrass: 0
[5]; [23]
  Plant response rating, Velvetleaf: 0
[5]; [24]
  Plant response rating, Velvetleaf: 0
[6]; [23]
  Plant response rating, Pigweed: 50
[6]; [24]
  Plant response rating, Pigweed: 100
[7]; [23]
  Plant response rating, Foxtail, Giant: 20
[7]; [24]
  Plant response rating, Foxtail, Giant: 40
[8]; [23]
  Plant response rating, Cocklebur: 0
[8]; [24]
  Plant response rating, Cocklebur: 30
[9]; [23]
  Plant response rating, Wheat: 0
[9]; [24]
  Plant response rating, Wheat: 0
[10]; [23]
  Plant response rating, Crabgrass: 0
[10]; [24]
  Plant response rating, Crabgrass: 40
[11]; [23]
  Plant response rating, Surinam grass: 0
[11]; [24]
  Plant response rating, Surinam grass: 0
[12]; [23]
  Plant response rating, Barnyardgrass: 0
[12]; [24]
  Plant response rating, Barnyardgrass: 0
[13]; [23]
  Plant response rating, Morningglory: 0
[13]; [24]
  Plant response rating, Morningglory: 30
[14]
  Flatsedge plant response rating: 95
  Plant response rating (scale 0 to 100), Flatsedge: 85
[14]; Rate 125 g/ha
  Plant response rating, Flatsedge: 85
[14]; Rate 250 g/ha
  Plant response rating, Flatsedge: 95
[15]
  Rice plant response rating: 75
  Plant response rating (scale 0 to 100), Rice: 20
[15]; Rate 125 g/ha
  Plant response rating, Rice: 20
[15]; Rate 250 g/ha
  Plant response rating, Rice: 45
[16]
  Barnyardgrass plant response rating: 100
  Plant response rating (scale 0 to 100), Barnyardgrass: 100
[16]; Rate 125 g/ha
  Plant response rating, Barnyardgrass: 100
[16]; Rate 250 g/ha
  Plant response rating, Barnyardgrass: 100
[17]
  Ducksalad plant response rating: 100
  Plant response rating (scale 0 to 100), Ducksalad: 50
[17]; Rate 125 g/ha
  Plant response rating, Ducksalad: 50
[17]; Rate 250 g/ha
  Plant response rating, Ducksalad: 95
[18]
  Plant response rating, Sunflower: 40
[19]
  Plant response rating, Sunflower: 40
[20]
  Plant response rating, Sunflower: 40
[21]; [23]
  Plant response rating, Ragweed, Common: 0
[21]; [25]
  Plant response rating, Ragweed, Common: 0
[21]; preemergence
  Plant response rating (0 to 100), Ragweed, Common: 50
[21]; [26]
  Plant response rating, Ragweed, Common: 30
[22]; [23]
  Plant response rating, Surinam grass: 0
[22]; [25]
  Plant response rating, Surinam grass: 0
[22]; preemergence
  Plant response rating (0 to 100), Surinam grass: 90
[22]; [26]
  Plant response rating, Surinam grass: 0

## CCC(C)c1ccn(C2OCN(c3cccc(OC(F)F)c3)C2=O)n1 (centres unmarked) [Compound 134]
[1]; [23]
  Plant response rating, Wild Oat: 0
[2]; [23]
  Plant response rating, Lambsquarters: 100
[3]; [23]
  Plant response rating, Corn: 0
[3]; [27]
  Plant response rating, Corn: 20
[4]; [23]
  Plant response rating, Blackgrass: 0
[4]; [27]
  Plant response rating, Blackgrass: 0
[5]; [23]
  Plant response rating, Velvetleaf: 0
[6]; [23]
  Plant response rating, Pigweed: 60
[7]; [23]
  Plant response rating, Foxtail, Giant: 30
[8]; [23]
  Plant response rating, Cocklebur: 30
[8]; [27]
  Plant response rating, Cocklebur: 30
[9]; [23]
  Plant response rating, Wheat: 0
[10]; [23]
  Plant response rating, Crabgrass: 20
[11]; [23]
  Plant response rating, Surinam grass: 20
[11]; [27]
  Plant response rating, Surinam grass: 60
[12]; [23]
  Plant response rating, Barnyardgrass: 90
[12]; [27]
  Plant response rating, Barnyardgrass: 100
[13]; [23]
  Plant response rating, Morningglory: 10
[14]
  Flatsedge plant response rating: 100
  Plant response rating (scale 0 to 100), Flatsedge: 90
[14]; Rate 125 g/ha
  Plant response rating, Flatsedge: 100
[14]; Rate 250 g/ha
  Plant response rating, Flatsedge: 100
[15]
  Rice plant response rating: 90
  Plant response rating (scale 0 to 100), Rice: 0
[15]; Rate 125 g/ha
  Plant response rating, Rice: 60
[15]; Rate 250 g/ha
  Plant response rating, Rice: 90
[16]
  Barnyardgrass plant response rating: 100
  Plant response rating (scale 0 to 100), Barnyardgrass: 100
[16]; Rate 125 g/ha
  Plant response rating, Barnyardgrass: 100
[16]; Rate 250 g/ha
  Plant response rating, Barnyardgrass: 100
[17]
  Ducksalad plant response rating: 100
  Plant response rating (scale 0 to 100), Ducksalad: 60
[17]; Rate 125 g/ha
  Plant response rating, Ducksalad: 90
[17]; Rate 250 g/ha
  Plant response rating, Ducksalad: 100
[18]
  Plant response rating, Sunflower: 0
[19]
  Plant response rating, Sunflower: 0
[20]
  Plant response rating, Sunflower: 0
[21]; [23]
  Plant response rating, Ragweed, Common: 0
[21]; [25]
  Plant response rating, Ragweed, Common: 0
[21]; preemergence
  Plant response rating (0 to 100), Ragweed, Common: 40
[21]; [26]
  Plant response rating, Ragweed, Common: 0
[22]; [23]
  Plant response rating, Surinam grass: 100
[22]; [25]
  Plant response rating, Surinam grass: 100
[22]; preemergence
  Plant response rating (0 to 100), Surinam grass: 100
[22]; [26]
  Plant response rating, Surinam grass: 100
